Marks after values point to notes of the source that are not given here.
Legend:
[1] = system: polyphenol oxidase (PPO) from sickleweed; assay: Substrate kinetics of sickleweed PPO (Lineweaver-Burk); type: biochemical, Falcaria vulgaris Bernh.; details: substance as substrate; optimum pH and temperature
Method: (§1) PPO activity was determined by measuring the increase in absorbance at 496 nm for 4-methylcatechol and 500 nm for catechol and DHPPA with a UV–Vis spectrophotometer. PPO activity was detected by the increment in absorbance in 1 min by adding 100 μL of the substrate (100 mM), 100 μL of 3-Methyl-2-benzothiazolinone hydrazone (MBTH, 10 mM), 20 μL of Dimethylformamide (DMF), 680 μL of 50 mM pH 5.0 acetate buffer, and finally 100 μL of the enzyme. The blank contains all solutions, excluding the enzyme. The enzyme unit is defined as the amount of the enzyme producing an absorbance increase of 0.001 per minute in 1 mL of the reaction mixture. The specific activity of PPO was defined as units per mg of protein [64].
To determine substrate specificity, catechol (0.2–20 mM), 4-methylcatechol (0.2–20 mM), and DHPPA (0.2–20 mM) concentrations were studied. Enzyme activity was carried out at optimum temperature and pH. The kinetic data were analyzed in terms of 1/activity (1/V) and 1/substrate concentration ([S]). The Michaelis-Menten constant (Km) and the maximum velocity (Vmax) were computed by plotting the Lineweaver-Burk graph. The catalytic efficiency ratio (Vmax/Km) was used as a criterion to evaluate substrate specificity.

Medlar PPO = system: Medlar PPO; set-up: method as in doi:10.1016/S0308-8146(01)00359-4; details: substance as substrate, ref [51], cited from earlier work; for Vmax: asterisked values
PPO from butter lettuce = system: PPO from butter lettuce; set-up: method as in doi:10.1016/j.foodchem.2007.07.068; details: substance as substrate; ref [38]; cited from earlier work
[2] = system: PPO from Laccaria laccata (LacPPO); set-up: method as in doi:10.1111/jfbc.12605; details: substance as substrate; ref [43]; cited from earlier work
[3] = system: PPO from persimmon fruits; set-up: method as in doi:10.1016/j.foodchem.2003.07.022; details: substance as substrate, ref [47], cited from earlier work; for Vmax: asterisked values
PPO from Sarali plum [4] = system: PPO from Sarali plum; set-up: method as in doi:10.1007/s11694-024-02663-y; details: substance as substrate; ref [39]; cited from earlier work
PPO from Chinese parsley = system: PPO from Chinese parsley; set-up: method as in PMID 30263491; details: substance as substrate; ref [50]; cited from earlier work
[5] = system: polyphenol oxidase (PPO) from sickleweed; assay: Inhibition of PPO purified from sickleweed, 4-methylcatechol substrate; type: biochemical, Falcaria vulgaris Bernh.; details: substrate 4-methylcatechol; for Inhibition type / Ki: Lineweaver-Burk plots; for IC50: optimum conditions
Method: as §1
The common inhibitors of PPO were preferred to study the inhibitory effects on PPO activity. For the 4-methylcatechol substrate, sodium metabisulphite (0.005–0.1 mM), citric acid (5–60 mM), and ascorbic acid (0.005–0.04 mM) inhibitors were utilized to determine enzyme activities under optimum conditions. The half maximal inhibitory concentration (IC50), which halves the enzyme activity, was calculated using the graph of percentage residual activity (%) versus inhibitor concentration (enzyme activity in the absence of inhibitor was accepted as one hundred percent). Then, enzyme activities were studied at five substrate concentrations and three inhibitor concentrations under optimum conditions. The Lineweaver-Burk graphs were drawn by calculating 1/V and 1/[S] values with the obtained data. From these graphs, inhibition constant (Ki) values were calculated for each inhibitor, and the inhibition type was determined.

PPO from purslane = system: PPO from purslane; set-up: method as in doi:10.1590/1678-457x.03216; details: substrate catechol; ref [21]; cited from earlier work
[6] = system: PPO from broccoli florets; set-up: method as in doi:10.1016/j.foodchem.2007.05.012; details: substrate 4-methylcatechol; ref [61]; cited from earlier work
PPO from Sarali plum [7] = system: PPO from Sarali plum; set-up: method as in doi:10.1007/s11694-024-02663-y; details: substrate 4-methylcatechol; ref [39]; cited from earlier work
PPO from tea leaf = system: PPO from tea leaf; set-up: method as in doi:10.1007/s11694-019-00264-8; details: substrate catechol; ref [40]; cited from earlier work

SMILES | Km [1] [mM] | Vmax [1] | Vmax (Medlar PPO) | Km (Medlar PPO) [mM] | Km (PPO from butter lettuce) [mM] | Vmax (PPO from butter lettuce) [EU·mL^−1·min^−1] | Km [2] [µM] | Vmax [3] | Km [3] [mM] | Km (PPO from Sarali plum [4]) [mM] | Vmax (PPO from Sarali plum [4]) [EU·mL^−1·min^−1] | Km (PPO from Chinese parsley) [mM] | Vmax (PPO from Chinese parsley) [EU·mL^−1·min^−1] | Inhibition type [5] | Ki [5] [mM] | IC50 [5] [µM] | Inhibition type (PPO from purslane) | Ki (PPO from purslane) [mM] | Inhibition type [6] | Ki [6] [µM] | further results
Oc1ccccc1O [Catechol, catechol] | 5 | 10,000 EU·mL^−1·min^−1 | 88.0 * μM/min | 5.7 | 3.2 ± 0.01 | 4081 ± 8 | 250 | 55.2 * μM/min | 12.4 | 1.16 ± 0.12 | 914.14 ± 83.45 | 31 | 2000 | – | – | – | – | – | – | – | –
O=C(O)CC(O)(CC(=O)O)C(=O)O [Citric acid, citric acid] | – | – | – | – | – | – | – | – | – | – | – | – | – | Competitive | 8.37 | 32000 | Uncompetitive | 4.47 | Noncompetitive | 74 | Ki ([5]; listed as citric acid): 8.73 mM
Cc1ccc(O)c(O)c1 [4-Methylcatechol, 4-methylcatechol] | 2 | 5000 EU·mL^−1·min^−1 | 130 * μM/min | 7.5 | 1 ± 0.09 | 5405 ± 4 | 400 | 49.5 * μM/min | 14.6 | 4.75 ± 0.66 | 2333.33 ± 288.68 | 37.4 | 1428.57 | – | – | – | – | – | – | – | –
O=C1O[C@H]([C@@H](O)CO)C(O)=C1O [Ascorbic acid, ascorbic acid] | – | – | – | – | – | – | – | – | – | – | – | – | – | Competitive | 0.0101 | 26 | Noncompetitive | 0.36 | Noncompetitive | 88 | IC50 (PPO from Sarali plum [7]): 38 ± 1 µM; Inhibition type (PPO from Sarali plum [7]): Competitive; Ki (PPO from Sarali plum [7]): 9.5 µM; IC50 (PPO from tea leaf): 69.3 µM; Inhibition type (PPO from tea leaf): Competitive; Ki (PPO from tea leaf): 32.7 µM
O=S(O)S(=O)(=O)O [Sodium metabisulfite, sodium metabisulfite] | – | – | – | – | – | – | – | – | – | – | – | – | – | Noncompetitive | 0.0237 | 27 | – | – | – | – | IC50 (PPO from tea leaf): 21.7 µM; Inhibition type (PPO from tea leaf): Noncompetitive; Ki (PPO from tea leaf): 19.3 µM
O=C(O)CCc1ccc(O)c(O)c1 [DHPPA, 3,4-Dihydroxyphenylpropionic acid] | 11.4 | 14,285.71 EU·mL^−1·min^−1 | 7.2 * μM/min | 1.9 | – | – | – | 17.2 * μM/min | 12.8 | – | – | – | – | – | – | – | – | – | – | – | –

— PMC12735778, “Purification and Biochemical Characterization of Polyphenol Oxidase from Falcaria vulgaris Bernh” (Molecules, 2025)
